Biological target: T1, human vasopressin V2 receptor subtype (Homo sapiens, UniProt P30518)
T1 construct: host or cells: CHO cells (pZeoSV vector)
Test: Vasopressin binding in Chinese Hamster Ovary cell membranes expressing human vasopressin V2 subtype receptors
Settings: 100 nM, CHO cell membranes, [3H]arginine vasopressin, values without parentheses
Procedure, shortened: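 Radioligand displacement on membranes from CHO cells stably expressing human V2 receptor, 25 to 50 μg protein/well, in 50 mM Tris-HCl pH 7.4 with MgCl2, BSA and protease inhibitors. [^3H]arginine vasopressin (8 nM working solution) incubated 60 min at room temperature; bound label measured by filtration and scintillation counting.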

T1 sequence (P30518 whole entry): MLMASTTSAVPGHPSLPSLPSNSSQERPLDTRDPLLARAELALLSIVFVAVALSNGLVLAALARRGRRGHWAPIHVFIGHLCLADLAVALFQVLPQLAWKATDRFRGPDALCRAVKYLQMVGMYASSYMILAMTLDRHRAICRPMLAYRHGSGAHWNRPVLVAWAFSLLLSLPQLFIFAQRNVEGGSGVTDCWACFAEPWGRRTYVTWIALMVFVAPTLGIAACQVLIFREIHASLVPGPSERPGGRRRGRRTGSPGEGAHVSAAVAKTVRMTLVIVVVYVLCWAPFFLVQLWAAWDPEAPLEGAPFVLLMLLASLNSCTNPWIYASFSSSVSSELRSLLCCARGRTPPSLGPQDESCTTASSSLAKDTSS

Compound	inhibition at 0.1 µM [%]
Cc1cc(C(=O)N2Cc3ccc(C(=O)N4CCN(CCN5CCOCC5)CC4)n3Cc3ccccc32)ccc1-c1ccccc1C(F)(F)F [Example 216, (10-{[2-Methyl-2′-(trifluoromethyl)[1,1′-biphenyl]-4-yl]carbonyl}-10,11-dihydro-5H -pyrrolo[2,1-c][1,4]benzodiazepin-3-yl){4-[2-(4-morpholinyl)ethyl]-1-piperazinyl}methanone]	0
C=CCN1CCN(C(=O)c2ccc3n2Cc2ccccc2N(C(=O)c2ccc(-c4ccccc4OC)c(C)c2)C3)CC1 [Example 222, (4-Allyl-1-piperazinyl){10-[(2′-methoxy-2-methyl[1,1′-biphenyl]-4-yl)carbonyl]-10,11-dihydro-5H-pyrrolo[2,1-c][1,4]benzodiazepin-3-yl}methanone]	1
COc1cccc(-c2ccc(C(=O)N3Cc4ccc(C(=O)N(C)C5CCN(C)C5)n4Cc4ccccc43)cc2C)c1 (stereo not shown) [Example 186, 10-[(3′-Methoxy-2-methyl[1,1′-biphenyl]-4-yl)carbonyl]-N-methyl-N-(1-methyl-3-pyrrolidinyl)-10,11-dihydro-5H-pyrrolo[2,1-c][1,4]benzodiazepine-3-carboxamide]	8
COc1ccccc1-c1ccc(C(=O)N2Cc3ccc(C(=O)N4CCN(C(C)C)CC4)n3Cc3ccccc32)cc1 [Example 234, (4-Isopropyl-1-piperazinyl){10-[(2′-methoxy[1,1′-biphenyl]-4-yl)carbonyl]-10,11-dihydro-5H-pyrrolo[2,1-c][1,4]benzodiazepin-3-yl}methanone]	22
COc1ccccc1-c1ccc(C(=O)N2Cc3ccc(C(=O)NCCC4CCCN4C)n3Cc3ccccc32)cc1 (stereo not shown) [Example 165, 10-[(2′-Methoxy[1,1′-biphenyl]-4-yl)carbonyl]-N-[2-(1-methyl-2-pyrrolidinyl)ethyl]-10,11-dihydro-5H-pyrrolo[2,1-c][1,4]benzodiazepine-3-carboxamide]	25
COc1ccccc1-c1ccc(C(=O)N2Cc3ccc(C(=O)N(C)C4CCN(C)CC4)n3Cc3ccccc32)cc1C [Example 175, 10-[(2′-Methoxy-2-methyl[1,1′-biphenyl]-4-yl)carbonyl]-N-methyl-N-(1-methyl-4-piperidinyl)-10,11-dihydro-5H-pyrrolo[2,1-c][1,4]benzodiazepine-3-carboxamide]	17
COc1ccccc1-c1ccc(C(=O)N2Cc3ccc(C(=O)NCCN4CCCCC4)n3Cc3ccccc32)cc1OC [Example 158, 10-[(2,2′-Dimethoxy[1,1′-biphenyl]-4-yl)carbonyl]-N-[2-(1-piperidinyl)ethyl]-10,11-dihydro-5H-pyrrolo[2,1-c][1,4]benzodiazepine-3-carboxamide]	19
COc1cccc(-c2ccc(C(=O)N3Cc4ccc(C(=O)N5CCN(C(C)C)CC5)n4Cc4ccccc43)cc2C)c1 [Example 235, (4-Isopropyl-1-piperazinyl){10-[(3′-methoxy-2-methyl[1,1′-biphenyl]-4-yl)carbonyl]-10,11-dihydro-5H-pyrrolo[2,1-c][1,4]benzodiazepin-3-yl}methanone]	17
C=CCN1CCN(C(=O)c2ccc3n2Cc2ccccc2N(C(=O)c2ccc(-c4cccc(OC)c4)c(C)c2)C3)CC1 [Example 223, (4-Allyl-1-piperazinyl){10-[(3′-methoxy-2-methyl[1,1′-biphenyl]-4-yl)carbonyl]-10,11-dihydro-5H-pyrrolo[2,1-c][1,4]benzodiazepin-3-yl}methanone]	13
COc1cccc(-c2cc(OC)c(C(=O)N3Cc4ccc(C(=O)N5CCN(C(C)C)CC5)n4Cc4ccccc43)cc2Cl)c1 [Example 239, {10-[(6-Chloro-3,3′-dimethoxy[1,1′-biphenyl]-4-yl)carbonyl]-10,11-dihydro-5H-pyrrolo[2,1-c][1,4]benzodiazepin-3-yl}(4-isopropyl-1-piperazinyl)methanone]	16

Now from value to molecule:

inhibition at 0.1 µM [%]	Compound
20	C=CCN1CCN(C(=O)c2ccc3n2Cc2ccccc2N(C(=O)c2ccc(-c4cccc(OC)c4)c(OC)c2)C3)CC1 [Example 228, (4-Allyl-1-piperazinyl){10-[(2,3′-dimethoxy[1,1′-biphenyl]-4-yl)carbonyl]-10,11-dihydro-5H -pyrrolo[2,1-c][1,4]benzodiazepin-3-yl}methanone]
27	C=CCN1CCN(C(=O)c2ccc3n2Cc2ccccc2N(C(=O)c2ccc(-c4cccc5ccccc45)cc2Cl)C3)CC1 [Example 229, (4-Allyl-1-piperazinyl){10-[2-chloro-4-(1-naphthyl)benzoyl]-10,11-dihydro-5H-pyrrolo[2,1-c][1,4]benzodiazepin-3-yl}methanone]
24	O=C(NCCN1CCCCC1)c1ccc2n1Cc1ccccc1N(C(=O)c1ccc(-c3cccc4ccccc34)cc1Cl)C2 [Example 160, 10-[2-Chloro-4-(1-naphthyl)benzoyl]-N-[2-(1-piperidinyl)ethyl]-10,11-dihydro-5H-pyrrolo[2,1-c][1,4]benzodiazepine-3-carboxamide]
4	C=CCN1CCN(C(=O)c2ccc3n2Cc2ccccc2N(C(=O)c2ccc(-c4ccccc4C(F)(F)F)c(C)c2)C3)CC1 [Example 230, (4-Allyl-1-piperazinyl)(10-{[2-methyl-2′-(trifluoromethyl)[1,1′-biphenyl]-4-yl]carbonyl}-10,11-dihydro-5H-pyrrolo[2,1-c][1,4]benzodiazepin-3-yl)methanone]
8	COc1cccc(-c2cc(OC)c(C(=O)N3Cc4ccc(C(=O)N5CCN(CCN(C)C)CC5)n4Cc4ccccc43)cc2Cl)c1 [Example 202, {10-[(6-Chloro-3,3′-dimethoxy[1,1′-biphenyl]-4-yl)carbonyl]-10,11-dihydro-5H-pyrrolo[2,1-c][1,4]benzodiazepin-3-yl}{4-[2-(dimethylamino)ethyl]-1-piperazinyl}methanone]
19	Cc1ccccc1-c1ccc(C(=O)N2Cc3ccc(C(=O)N4CCN(CCN(C)C)CC4)n3Cc3ccccc32)cc1C [Example 198, {4-[2-(Dimethylamino)ethyl]-1-piperazinyl}{10-[(2,2′-dimethyl[1,1′-biphenyl]-4-yl)carbonyl]-10,11-dihydro-5H-pyrrolo[2,1-c][1,4]benzodiazepin-3-yl}methanone]
34	COc1cc(-c2ccccc2C)c(Cl)cc1C(=O)N1Cc2ccc(C(=O)N3CCN(CCN4CCOCC4)CC3)n2Cc2ccccc21 [Example 217, {10-[(6-Chloro-3-methoxy-2′-methyl[1,1′-biphenyl]-4-yl)carbonyl]-10,11-dihydro-5H -pyrrolo[2,1-c][1,4]benzodiazepin-3-yl}{4-[2-(4-morpholinyl)ethyl]-1-piperazinyl}methanone]
5	COc1cccc(-c2cc(OC)c(C(=O)N3Cc4ccc(C(=O)NCCC5CCCN5C)n4Cc4ccccc43)cc2Cl)c1 (stereo not shown) [Example 169, 10-[(6-Chloro-3,3′-dimethoxy[1,1′-biphenyl]-4-yl)carbonyl]-N-[2-(1-methyl-2-pyrrolidinyl)ethyl]-10,11-dihydro-5H-pyrrolo[2,1-c][1,4]benzodiazepine-3-carboxamide]
13	Cc1ccccc1-c1ccc(C(=O)N2Cc3ccc(C(=O)NCCC4CCCN4C)n3Cc3ccccc32)cc1C (stereo not shown) [Example 163, 10-[(2,2′-Dimethyl[1,1′-biphenyl]-4-yl)carbonyl]-N-[2-(1-methyl-2-pyrrolidinyl)ethyl]-10,11-dihydro-5H-pyrrolo[2,1-c][1,4]benzodiazepine-3-carboxamide]
-4	C=CCN1CCN(C(=O)c2ccc3n2Cc2ccccc2N(C(=O)c2ccc(-c4ccccc4C)c(OC)c2)C3)CC1 [Example 225, (4-Allyl-1-piperazinyl){10-[(2-methoxy-2′-methyl[1,1′-biphenyl]-4-yl)carbonyl]-10,11-dihydro-5H-pyrrolo[2,1-c][1,4]benzodiazepin-3-yl}methanone]
13	Cc1cc(C(=O)N2Cc3ccc(C(=O)N4CCN(C(=O)OC(C)(C)C)CC4)n3Cc3ccccc32)ccc1-c1ccccc1C(F)(F)F [Example 6, 4-[[10,11-Dihydro-10-[[2-methyl-2′-trifluoromethyl[1,1′-biphenyl]-4-yl]carbonyl]-5H-pyrrolo[2,1-c][1,4]benzodiazepin-3-yl]carbonyl]-1-piperazine-carboxylic acid, tert-butyl ester]
33	COc1cc(C(=O)N2Cc3ccc(C(=O)N4CCN(CCN5CCOCC5)CC4)n3Cc3ccccc32)ccc1-c1cccc2ccccc12 [Example 213, {10-[3-Methoxy-4-(1-naphthyl)benzoyl]-10,11-dihydro-5H-pyrrolo[2,1-c][1,4]benzodiazepin-3-yl}{4-[2-(4-morpholinyl)ethyl]-1-piperazinyl}methanone]
10	Cc1ccccc1-c1ccc(C(=O)N2Cc3ccc(C(=O)N4CCN(CCN5CCOCC5)CC4)n3Cc3ccccc32)cc1 [Example 209, {10-[(2′-Methyl[1,1′-biphenyl]-4-yl)carbonyl]-10,11-dihydro-5H-pyrrolo[2,1-c][1,4]benzodiazepin-3-yl}{4-[2-(4-morpholinyl)ethyl]-1-piperazinyl}methanone]
28	COc1cc(C(=O)N2Cc3ccc(C(=O)N4CCN(CCN(C)C)CC4)n3Cc3ccccc32)ccc1-c1cccc2ccccc12 [Example 203, {4-[2-(Dimethylamino)ethyl]-1-piperazinyl}{10-[3-methoxy-4-(1-naphthyl)benzoyl]-10,11-dihydro-5H-pyrrolo[2,1-c][1,4]benzodiazepin-3-yl}methanone]
14	COc1ccccc1-c1ccc(C(=O)N2Cc3ccc(C(=O)NCCC4CCCN4C)n3Cc3ccccc32)cc1OC (stereo not shown) [Example 171, 10-[(2,2′-Dimethoxy[1,1′-biphenyl]-4-yl)carbonyl]-N-[2-(1-methyl-2-pyrrolidinyl)ethyl]-10,11-dihydro-5H-pyrrolo[2,1-c][1,4]benzodiazepine-3-carboxamide]

From patent US7109193B2, “Tricyclic diazepines tocolytic oxytocin receptor antagonists” (Wyeth, priority 2001, dated 2006)
